Reference: ChEMBL document CHEMBL1255512, “Pyrazolo[1,5-a]pyrimidine acetamides: 4-Phenyl alkyl ether derivatives as potent ligands for the 18 kDa translocator protein (TSPO)” (Bioorg Med Chem Lett, 2010)

Experiments:
[1] = molecular target: T1, Muscarinic acetylcholine receptor M5 (Homo sapiens) (UniProt P08912); assay: Inhibition of M5 muscarinic receptor at 10 uM
T1 sequence (whole entry): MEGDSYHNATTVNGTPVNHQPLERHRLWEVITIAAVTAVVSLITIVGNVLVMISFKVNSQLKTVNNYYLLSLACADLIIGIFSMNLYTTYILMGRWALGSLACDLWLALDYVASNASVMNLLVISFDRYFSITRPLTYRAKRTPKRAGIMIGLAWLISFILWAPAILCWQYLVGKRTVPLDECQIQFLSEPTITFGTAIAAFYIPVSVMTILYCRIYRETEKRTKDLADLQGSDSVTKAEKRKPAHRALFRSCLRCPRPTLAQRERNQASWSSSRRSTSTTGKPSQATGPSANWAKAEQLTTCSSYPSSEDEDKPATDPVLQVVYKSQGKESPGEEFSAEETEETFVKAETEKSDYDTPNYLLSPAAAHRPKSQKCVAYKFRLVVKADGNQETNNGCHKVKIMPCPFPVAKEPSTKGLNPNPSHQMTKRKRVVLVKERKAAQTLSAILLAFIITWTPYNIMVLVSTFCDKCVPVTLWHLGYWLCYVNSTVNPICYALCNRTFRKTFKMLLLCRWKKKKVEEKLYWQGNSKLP

[2] = molecular target: 5-hydroxytryptamine receptor 1B (Homo sapiens, UniProt P28222); assay: Inhibition of 5-HT1B receptor
[3] = molecular target: Sodium-dependent dopamine transporter (Homo sapiens) (UniProt Q01959); assay: Inhibition of dopamine transporter at 10 uM
[4] = molecular target: Sodium-dependent noradrenaline transporter (Homo sapiens) (UniProt P23975); assay: Inhibition of norepinephrine receptor at 10 uM
[5] = molecular target: T2, Alpha-1B adrenergic receptor (Homo sapiens) (UniProt P35368); assay: Inhibition of Alpha-1B adrenergic receptor at 10 uM
T2 sequence (whole entry): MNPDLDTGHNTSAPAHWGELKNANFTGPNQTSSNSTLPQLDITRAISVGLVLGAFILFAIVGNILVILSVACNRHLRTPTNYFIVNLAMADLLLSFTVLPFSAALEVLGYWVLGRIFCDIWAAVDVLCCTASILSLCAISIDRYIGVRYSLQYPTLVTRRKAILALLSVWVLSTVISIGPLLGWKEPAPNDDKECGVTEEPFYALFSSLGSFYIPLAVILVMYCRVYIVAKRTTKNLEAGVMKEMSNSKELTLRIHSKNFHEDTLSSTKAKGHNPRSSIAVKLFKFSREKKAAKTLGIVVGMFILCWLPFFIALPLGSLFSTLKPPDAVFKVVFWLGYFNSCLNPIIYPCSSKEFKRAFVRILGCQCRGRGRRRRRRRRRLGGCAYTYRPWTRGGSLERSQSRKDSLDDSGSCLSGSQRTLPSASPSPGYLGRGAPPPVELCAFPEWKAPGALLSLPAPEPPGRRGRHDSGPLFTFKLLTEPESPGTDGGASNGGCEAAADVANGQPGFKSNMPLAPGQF

[6] = molecular target: D(1A) dopamine receptor (Homo sapiens) (UniProt P21728); assay: Inhibition of D1 dopamine receptor at 10 uM
[7] = molecular target: Histamine H4 receptor (Homo sapiens) (UniProt Q9H3N8); assay: Inhibition of H4 receptor at 10 uM
[8] = molecular target: 5-hydroxytryptamine receptor 5A (Homo sapiens) (UniProt P47898); assay: Inhibition of 5-HT5A receptor at 10 uM
[9] = molecular target: Beta-2 adrenergic receptor (Homo sapiens) (UniProt P07550); assay: Inhibition of beta2 adrenergic receptor at 10 uM
[10] = molecular target: T3, D(4) dopamine receptor (Homo sapiens) (UniProt P21917); assay: Inhibition of D4 dopamine receptor at 10 uM
T3 sequence (whole entry): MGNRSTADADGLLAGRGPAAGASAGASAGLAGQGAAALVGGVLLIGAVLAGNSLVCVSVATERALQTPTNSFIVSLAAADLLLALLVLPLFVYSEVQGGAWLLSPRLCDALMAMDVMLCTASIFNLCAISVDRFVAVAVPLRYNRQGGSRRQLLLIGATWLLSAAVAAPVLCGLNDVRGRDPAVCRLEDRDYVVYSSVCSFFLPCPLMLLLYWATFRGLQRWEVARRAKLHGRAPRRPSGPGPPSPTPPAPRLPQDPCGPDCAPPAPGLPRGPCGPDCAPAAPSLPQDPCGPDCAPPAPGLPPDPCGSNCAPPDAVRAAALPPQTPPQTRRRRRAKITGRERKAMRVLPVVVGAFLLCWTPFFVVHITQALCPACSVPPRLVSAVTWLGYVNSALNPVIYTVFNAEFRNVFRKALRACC

[11] = molecular target: D(1B) dopamine receptor (Homo sapiens) (UniProt P21918); assay: Inhibition of D5 dopamine receptor at 10 uM
[12] = molecular target: T4, Kappa-type opioid receptor (Homo sapiens, UniProt P41145); assay: Inhibition of kappa opioid receptor at 10 uM
[13] = molecular target: D(3) dopamine receptor (Homo sapiens) (UniProt P35462); assay: Inhibition of D3 dopamine receptor at 10 uM
[14] = molecular target: T5, 5-hydroxytryptamine receptor 1A (Homo sapiens) (UniProt P08908); assay: Inhibition of 5-HT1A receptor at 10 uM
T5 sequence (whole entry): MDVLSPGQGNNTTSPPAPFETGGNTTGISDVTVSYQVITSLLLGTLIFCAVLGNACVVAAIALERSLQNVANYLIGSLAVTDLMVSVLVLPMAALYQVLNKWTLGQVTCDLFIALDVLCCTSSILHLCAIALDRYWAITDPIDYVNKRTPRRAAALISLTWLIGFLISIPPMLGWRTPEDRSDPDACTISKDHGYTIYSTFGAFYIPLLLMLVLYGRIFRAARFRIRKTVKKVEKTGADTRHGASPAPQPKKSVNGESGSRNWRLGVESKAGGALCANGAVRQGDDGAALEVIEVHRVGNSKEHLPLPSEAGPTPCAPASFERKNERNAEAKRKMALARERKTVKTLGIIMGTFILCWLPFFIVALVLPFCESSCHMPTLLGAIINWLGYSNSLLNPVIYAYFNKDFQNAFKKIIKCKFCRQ

[15] = molecular target: Muscarinic acetylcholine receptor M3 (Homo sapiens) (UniProt P20309); assay: Inhibition of M3 muscarinic receptor at 10 uM
[16] = Displacement of [3H]Ro151788 from CBR in rat […]; format: tissue-based
[17] = molecular target: 5-hydroxytryptamine receptor 2B (Homo sapiens, UniProt P41595); assay: Inhibition of 5-HT2B receptor at 10 uM
[18] = molecular target: Sodium-dependent serotonin transporter (Homo sapiens) (UniProt P31645); assay: Inhibition of 5HT transporter at 10 uM
[19] = molecular target: Beta-1 adrenergic receptor (Homo sapiens) (UniProt P08588); assay: Inhibition of beta-1 adrenergic receptor at 10 uM
[20] = molecular target: Alpha-2A adrenergic receptor (Homo sapiens) (UniProt P08913); assay: Inhibition of alpha2A adrenergic receptor at 10 uM
[21] = molecular target: T4, Kappa-type opioid receptor; assay: Inhibition of kappa opioid receptor
[22] = molecular target: Delta-type opioid receptor (Homo sapiens, UniProt P41143); assay: Inhibition of delta opioid receptor

Sequence of Beta-2 adrenergic receptor (Homo sapiens) (P07550 whole entry, looked up): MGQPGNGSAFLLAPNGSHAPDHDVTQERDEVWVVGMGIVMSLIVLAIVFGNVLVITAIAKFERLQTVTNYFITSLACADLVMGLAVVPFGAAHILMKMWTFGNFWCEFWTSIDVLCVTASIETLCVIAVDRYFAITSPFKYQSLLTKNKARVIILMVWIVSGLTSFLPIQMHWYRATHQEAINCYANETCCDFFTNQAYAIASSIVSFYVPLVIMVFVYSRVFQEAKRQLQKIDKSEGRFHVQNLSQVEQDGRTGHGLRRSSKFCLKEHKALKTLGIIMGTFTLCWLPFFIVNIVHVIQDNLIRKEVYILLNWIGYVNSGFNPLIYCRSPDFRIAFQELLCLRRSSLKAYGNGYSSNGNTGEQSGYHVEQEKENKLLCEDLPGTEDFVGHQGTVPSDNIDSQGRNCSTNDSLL
Sequence of 5-hydroxytryptamine receptor 1B (P28222 whole entry): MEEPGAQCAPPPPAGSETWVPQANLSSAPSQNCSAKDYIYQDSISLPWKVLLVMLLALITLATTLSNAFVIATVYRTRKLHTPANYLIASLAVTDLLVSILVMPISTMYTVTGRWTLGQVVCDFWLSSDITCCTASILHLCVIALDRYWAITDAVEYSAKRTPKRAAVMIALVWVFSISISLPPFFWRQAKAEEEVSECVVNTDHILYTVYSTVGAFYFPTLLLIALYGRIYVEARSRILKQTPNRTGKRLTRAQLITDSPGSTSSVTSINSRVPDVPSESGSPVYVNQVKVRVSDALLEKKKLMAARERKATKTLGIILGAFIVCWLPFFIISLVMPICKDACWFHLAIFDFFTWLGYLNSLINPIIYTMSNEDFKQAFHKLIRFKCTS
Sequence of Sodium-dependent dopamine transporter (Homo sapiens) (Q01959 whole entry): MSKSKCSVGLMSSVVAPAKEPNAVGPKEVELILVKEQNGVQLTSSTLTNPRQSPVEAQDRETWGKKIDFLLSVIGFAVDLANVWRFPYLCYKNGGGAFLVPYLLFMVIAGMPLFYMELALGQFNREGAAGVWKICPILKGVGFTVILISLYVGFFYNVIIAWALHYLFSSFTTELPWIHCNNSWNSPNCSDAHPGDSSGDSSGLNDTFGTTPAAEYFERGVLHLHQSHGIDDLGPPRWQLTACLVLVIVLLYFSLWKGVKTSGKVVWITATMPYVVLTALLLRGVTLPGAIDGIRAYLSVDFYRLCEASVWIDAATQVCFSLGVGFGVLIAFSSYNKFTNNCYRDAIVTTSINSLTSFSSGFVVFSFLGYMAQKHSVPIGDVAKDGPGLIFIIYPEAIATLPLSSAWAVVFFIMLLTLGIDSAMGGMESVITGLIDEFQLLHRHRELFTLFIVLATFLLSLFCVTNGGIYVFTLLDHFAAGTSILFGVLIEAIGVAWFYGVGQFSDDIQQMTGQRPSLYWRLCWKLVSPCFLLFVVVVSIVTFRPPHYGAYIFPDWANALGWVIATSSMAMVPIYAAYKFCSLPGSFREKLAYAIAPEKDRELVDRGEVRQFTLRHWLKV
Sequence of Histamine H4 receptor (Homo sapiens) (Q9H3N8 whole entry): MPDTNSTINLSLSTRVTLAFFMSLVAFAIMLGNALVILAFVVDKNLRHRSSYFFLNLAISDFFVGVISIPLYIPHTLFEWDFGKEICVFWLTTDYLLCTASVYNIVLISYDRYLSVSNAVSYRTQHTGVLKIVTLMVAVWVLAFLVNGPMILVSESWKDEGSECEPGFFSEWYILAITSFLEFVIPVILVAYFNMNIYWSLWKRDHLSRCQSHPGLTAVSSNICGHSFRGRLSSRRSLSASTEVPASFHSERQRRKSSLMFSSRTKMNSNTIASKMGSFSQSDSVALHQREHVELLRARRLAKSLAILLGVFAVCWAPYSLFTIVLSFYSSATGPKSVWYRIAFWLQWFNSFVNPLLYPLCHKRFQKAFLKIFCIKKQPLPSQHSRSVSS
Sequence of Beta-1 adrenergic receptor (Homo sapiens) (P08588 whole entry, looked up): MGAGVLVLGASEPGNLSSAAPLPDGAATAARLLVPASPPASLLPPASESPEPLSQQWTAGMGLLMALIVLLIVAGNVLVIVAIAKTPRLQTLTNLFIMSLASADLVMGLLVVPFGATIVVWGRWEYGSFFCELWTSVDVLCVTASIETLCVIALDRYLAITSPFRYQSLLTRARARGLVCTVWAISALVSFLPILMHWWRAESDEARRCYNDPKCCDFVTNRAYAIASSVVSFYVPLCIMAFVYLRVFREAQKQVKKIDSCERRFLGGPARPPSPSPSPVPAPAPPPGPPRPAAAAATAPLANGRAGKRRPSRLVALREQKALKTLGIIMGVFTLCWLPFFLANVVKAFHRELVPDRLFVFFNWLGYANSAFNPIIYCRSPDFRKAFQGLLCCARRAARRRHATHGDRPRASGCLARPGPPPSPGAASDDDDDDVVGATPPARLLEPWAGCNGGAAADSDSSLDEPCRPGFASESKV
Sequence of D(1B) dopamine receptor (Homo sapiens) (P21918 whole entry): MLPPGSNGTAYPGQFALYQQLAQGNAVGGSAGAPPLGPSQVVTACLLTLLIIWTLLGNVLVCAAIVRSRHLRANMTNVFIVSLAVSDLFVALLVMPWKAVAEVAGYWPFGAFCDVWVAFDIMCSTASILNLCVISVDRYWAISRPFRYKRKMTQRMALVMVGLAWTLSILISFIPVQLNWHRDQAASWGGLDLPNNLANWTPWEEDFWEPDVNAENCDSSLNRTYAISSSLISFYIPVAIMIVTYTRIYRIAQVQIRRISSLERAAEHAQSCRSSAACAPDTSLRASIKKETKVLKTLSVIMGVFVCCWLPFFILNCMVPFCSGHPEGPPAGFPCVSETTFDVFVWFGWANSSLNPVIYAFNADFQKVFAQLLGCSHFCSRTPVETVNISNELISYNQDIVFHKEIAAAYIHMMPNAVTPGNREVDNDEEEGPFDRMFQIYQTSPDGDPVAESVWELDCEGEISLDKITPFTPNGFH
Sequence of 5-hydroxytryptamine receptor 2B (P41595 whole entry): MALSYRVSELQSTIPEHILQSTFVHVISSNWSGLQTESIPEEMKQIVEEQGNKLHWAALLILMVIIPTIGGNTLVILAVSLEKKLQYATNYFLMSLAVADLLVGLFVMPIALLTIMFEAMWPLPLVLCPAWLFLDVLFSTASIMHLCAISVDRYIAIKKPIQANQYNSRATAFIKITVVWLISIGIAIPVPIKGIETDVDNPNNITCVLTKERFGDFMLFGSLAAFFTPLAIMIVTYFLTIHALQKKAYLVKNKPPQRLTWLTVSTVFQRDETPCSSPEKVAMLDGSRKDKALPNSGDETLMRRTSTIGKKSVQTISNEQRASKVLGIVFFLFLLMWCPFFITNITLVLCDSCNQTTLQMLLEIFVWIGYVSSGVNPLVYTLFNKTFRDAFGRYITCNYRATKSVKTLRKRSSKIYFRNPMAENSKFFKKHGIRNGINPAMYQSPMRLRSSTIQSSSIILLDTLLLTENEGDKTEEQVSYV
T4 sequence (P41145 whole entry): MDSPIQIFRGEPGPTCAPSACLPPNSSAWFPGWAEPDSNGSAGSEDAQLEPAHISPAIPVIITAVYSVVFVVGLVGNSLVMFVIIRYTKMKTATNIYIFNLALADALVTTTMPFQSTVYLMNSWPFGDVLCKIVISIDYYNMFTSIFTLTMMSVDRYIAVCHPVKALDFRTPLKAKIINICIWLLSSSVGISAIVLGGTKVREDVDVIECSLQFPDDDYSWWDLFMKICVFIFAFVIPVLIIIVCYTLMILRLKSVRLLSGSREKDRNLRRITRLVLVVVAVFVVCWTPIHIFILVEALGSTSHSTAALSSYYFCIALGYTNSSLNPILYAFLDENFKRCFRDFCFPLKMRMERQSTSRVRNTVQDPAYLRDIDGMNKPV
Sequence of 5-hydroxytryptamine receptor 5A (Homo sapiens) (P47898 whole entry): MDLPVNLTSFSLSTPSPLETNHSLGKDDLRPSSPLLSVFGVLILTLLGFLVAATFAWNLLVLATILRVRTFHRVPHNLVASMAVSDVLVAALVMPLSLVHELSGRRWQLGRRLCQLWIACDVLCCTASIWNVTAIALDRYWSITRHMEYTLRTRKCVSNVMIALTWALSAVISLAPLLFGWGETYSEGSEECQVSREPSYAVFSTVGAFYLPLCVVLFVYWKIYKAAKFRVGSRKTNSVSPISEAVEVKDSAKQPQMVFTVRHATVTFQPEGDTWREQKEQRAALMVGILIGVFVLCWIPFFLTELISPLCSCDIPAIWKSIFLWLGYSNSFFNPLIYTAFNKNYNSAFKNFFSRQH
Sequence of Sodium-dependent serotonin transporter (Homo sapiens) (P31645 whole entry, looked up): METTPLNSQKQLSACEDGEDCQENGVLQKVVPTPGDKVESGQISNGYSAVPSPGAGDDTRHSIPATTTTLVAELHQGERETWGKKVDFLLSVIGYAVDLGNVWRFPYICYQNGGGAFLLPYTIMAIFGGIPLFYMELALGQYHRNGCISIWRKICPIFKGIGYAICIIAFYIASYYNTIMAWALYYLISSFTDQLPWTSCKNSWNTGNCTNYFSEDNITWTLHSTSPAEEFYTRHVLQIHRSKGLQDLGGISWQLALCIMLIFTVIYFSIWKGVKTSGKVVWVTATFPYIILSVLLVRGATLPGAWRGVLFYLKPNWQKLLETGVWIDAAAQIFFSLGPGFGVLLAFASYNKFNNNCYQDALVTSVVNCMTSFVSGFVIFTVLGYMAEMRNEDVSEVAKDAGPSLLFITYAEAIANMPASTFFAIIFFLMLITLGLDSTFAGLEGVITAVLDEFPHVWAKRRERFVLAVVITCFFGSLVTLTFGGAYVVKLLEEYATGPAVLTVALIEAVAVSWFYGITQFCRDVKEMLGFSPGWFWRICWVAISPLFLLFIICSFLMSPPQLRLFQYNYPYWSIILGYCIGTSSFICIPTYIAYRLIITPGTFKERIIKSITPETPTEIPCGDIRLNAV

SMILES | inhibition [1] [%] | Ki [2] [µM] | inhibition [3] [%] | inhibition [4] [%] | inhibition [5] [%] | inhibition [6] [%] | inhibition [7] [%] | inhibition [8] [%] | inhibition [9] [%] | inhibition [10] [%] | inhibition [11] [%] | inhibition [12] [%] | inhibition [13] [%] | inhibition [14] [%] | inhibition [15] [%] | Ki [16] [µM] | inhibition [17] [%] | inhibition [18] [%] | inhibition [19] [%] | inhibition [20] [%] | further results
CCOc1ccc(-c2nn3c(C)cc(C)nc3c2CC(=O)N(CC)CC)cc1 | < 50 | > 10 | < 50 | < 50 | < 50 | < 50 | < 50 | < 50 | < 50 | < 50 | < 50 | < 50 | < 50 | < 50 | < 50 | > 10 | < 50 | < 50 | < 50 | – | –
CCCCOc1ccc(-c2nn3c(C)cc(C)nc3c2CC(=O)N(CC)CC)cc1 | < 50 | 1.57 | < 50 | < 50 | < 50 | < 50 | < 50 | < 50 | < 50 | < 50 | < 50 | – | < 50 | < 50 | < 50 | > 10 | – | < 50 | < 50 | < 50 | Ki [21]: > 10 µM; Ki [22]: > 10 µM
CCCOc1ccc(-c2nn3c(C)cc(C)nc3c2CC(=O)N(CC)CC)cc1 | < 50 | > 10 | < 50 | < 50 | – | < 50 | < 50 | < 50 | < 50 | < 50 | < 50 | – | < 50 | < 50 | < 50 | > 10 | < 50 | < 50 | < 50 | – | Ki [21]: > 10 µM; Ki [22]: > 10 µM
C#CCOc1ccc(-c2nn3c(C)cc(C)nc3c2CC(=O)N(CC)CC)cc1 | < 50 | > 10 | < 50 | < 50 | < 50 | < 50 | < 50 | < 50 | < 50 | < 50 | < 50 | < 50 | < 50 | < 50 | < 50 | > 10 | < 50 | < 50 | < 50 | < 50 | –
